Assay results from PubChem BioAssay AID248 (DTP/NCI, 2004).
Values joined by “and” are separate entries in the source; they are usually repeats but may differ in a detail not shown here. Equal entries are not always repeated. Toxic doses and inconclusive results are not listed.

Tested on: L1210 leukemia ip in BDF1 mice, survival T/C
Assay: NCI In Vivo Anticancer Drug Screen. Data for tumor model L1210 Leukemia (intraperitoneal) in B6D2F1 (BDF1) mice
Details: endpoint: mean survival time, higher = longer survival
Procedure, shortened: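 Antitumor effect is assessed in tumor-bearing animals. Survival in the compound arm is compared with a vehicle-dosed control arm and expressed as their quotient.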

[1] = dose: 100.0 mg/kg/injection, schedule: Q01DX001 (ip), vehicle: saline
[2] = dose: 200.0 mg/kg/injection, schedule: Q01DX001 (ip), vehicle: saline
[3] = dose: 400.0 mg/kg/injection, schedule: Q01DX001 (ip), vehicle: saline
[4] = dose: 50.0 mg/kg/injection, schedule: Q01DX009 (ip), vehicle: saline with Tween-80

Question: Which T/C (dose: 10.6 mg/kg/injection, schedule: Q01DX Z (ip), vehicle: carboxymethylcellulose (CMC)) does the source give for CS(=O)(=O)OCCC(=O)NCNC(=O)CCOS(C)(=O)=O here?
Answer: 117 % of control and 120 % of control

Question: What about the T/C (dose: 16.0 mg/kg/injection, schedule: Q01DX Z (ip), vehicle: carboxymethylcellulose (CMC)) of the same compound?
Answer: 109 % of control

Question: What about the T/C (dose: 18.8 mg/kg/injection, schedule: Q01DX Z (ip), vehicle: carboxymethylcellulose (CMC)) of the same compound?
Answer: 124 % of control

Question: What about the T/C (dose: 24.0 mg/kg/injection, schedule: Q01DX Z (ip), vehicle: carboxymethylcellulose (CMC)) of the same compound?
Answer: 123 % of control

Question: What about the T/C (dose: 28.0 mg/kg/injection, schedule: Q01DX Z (ip), vehicle: carboxymethylcellulose (CMC)) of the same compound?
Answer: 124 % of control

Question: What about the T/C (dose: 54.0 mg/kg/injection, schedule: Q01DX Z (ip), vehicle: carboxymethylcellulose (CMC)) of the same compound?
Answer: 122 % of control

Question: What about the T/C (dose: 81.0 mg/kg/injection, schedule: Q01DX Z (ip), vehicle: carboxymethylcellulose (CMC)) of the same compound?
Answer: 117 % of control

Question: What about the T/C (dose: 84.0 mg/kg/injection, schedule: Q01DX Z (ip), vehicle: carboxymethylcellulose (CMC)) of the same compound?
Answer: 109 % of control

Question: What about the T/C (dose: 90.0 mg/kg/injection, schedule: Q01DX Z (ip), vehicle: carboxymethylcellulose (CMC)) of the same compound?
Answer: 121 % of control

Question: What about the T/C (dose: 95.0 mg/kg/injection, schedule: Q01DX Z (ip), vehicle: carboxymethylcellulose (CMC)) of the same compound?
Answer: 119 % of control

Question: For O=C(OCC1OC(n2cnc3c(=S)nc[nH]c32)C(OC(=O)c2ccc(Cl)cc2)C1OC(=O)c1ccc(Cl)cc1)c1ccc(Cl)cc1 (stereo unspecified), which T/C [1] is on record?
Answer: 104 % of control

Question: What about the T/C (dose: 100.0 mg/kg/injection, schedule: Q01DX009 (ip), vehicle: saline) of the same compound?
Answer: 122 % of control

Question: What about the T/C [2] of the same compound?
Answer: 101 % of control

Question: And the T/C [3]?
Answer: 113 % of control

Question: And the T/C (dose: 800.0 mg/kg/injection, schedule: Q01DX009 (ip), vehicle: saline)?
Answer: 166 % of control

Question: Which T/C [4] does the source give for COc1cc2c(cc1O)CCCC(C)(C)C2=O here?
Answer: 104 % of control

Question: And the T/C (dose: 100.0 mg/kg/injection, schedule: Q01DX009 (ip), vehicle: saline with Tween-80)?
Answer: 93 % of control

Question: What about the T/C (dose: 200.0 mg/kg/injection, schedule: Q01DX009 (ip), vehicle: saline with Tween-80) of the same compound?
Answer: 90 % of control

Question: With CC(=O)OCC1OC(SSc2ccccc2)C(OC(C)=O)C(OC(C)=O)C1OC(C)=O (stereo unspecified) as the compound, how does the T/C [1] read?
Answer: 98 % of control

Question: And the T/C [2]?
Answer: 89 % of control

Question: What about the T/C [3] of the same compound?
Answer: 89 % of control

Question: For COC(=O)c1ccccn1, which T/C (dose: 100.0 mg/kg/injection, schedule: Q04DX002 (ip), vehicle: saline with Tween-80) is on record?
Answer: 100 % of control

Question: What about the T/C (dose: 200.0 mg/kg/injection, schedule: Q04DX002 (ip), vehicle: saline with Tween-80) of the same compound?
Answer: 107 % of control

Question: With CO/N=C(\C)CSS(=O)(=O)OC as the compound, how does the T/C (dose: 100.0 mg/kg/injection, schedule: Q04DX002 (ip), vehicle: saline) read?
Answer: 93 % of control

Question: And the T/C (dose: 200.0 mg/kg/injection, schedule: Q04DX002 (ip), vehicle: saline)?
Answer: 96 % of control

Question: And the T/C (dose: 400.0 mg/kg/injection, schedule: Q04DX002 (ip), vehicle: saline)?
Answer: 86 % of control

Question: With CC1CN=C(c2ccc(NC(=O)NCCCCCCCCCNC(=O)Nc3ccc(C4=NCC(C)N4)cc3)cc2)N1 (stereo unspecified) as the compound, how does the T/C (dose: 6.5 mg/kg/injection, schedule: Q01DX Z (ip), vehicle: carboxymethylcellulose (CMC)) read?
Answer: 86 % of control

Question: And the T/C (dose: 13.0 mg/kg/injection, schedule: Q01DX Z (ip), vehicle: carboxymethylcellulose (CMC))?
Answer: 100 % of control

Question: And the T/C (dose: 26.0 mg/kg/injection, schedule: Q01DX Z (ip), vehicle: carboxymethylcellulose (CMC))?
Answer: 106 % of control

Question: What about the T/C (dose: 52.0 mg/kg/injection, schedule: Q01DX Z (ip), vehicle: carboxymethylcellulose (CMC)) of the same compound?
Answer: 107 % of control

Question: For O=C(Nc1ccc(S(=O)(=O)F)cc1)/C(=C/c1ccc([N+](=O)[O-])cc1)c1ccccc1, which T/C (dose: 12.5 mg/kg/injection, schedule: Q01DX009 (ip), vehicle: saline with Tween-80) is on record?
Answer: 102 % of control

Question: And the T/C (dose: 25.0 mg/kg/injection, schedule: Q01DX009 (ip), vehicle: saline with Tween-80)?
Answer: 109 % of control

Question: What about the T/C [4] of the same compound?
Answer: 98 % of control

Question: Which results are given for CCc1cc2c(cc1C(=O)/C=C\C(=O)O)C(C)(C)CCC2(C)C?
Answer: T/C (dose: 0.5 mg/kg/injection, schedule: Q01DX001 (ip), vehicle: saline): 96 % of control; T/C (dose: 1.0 mg/kg/injection, schedule: Q01DX001 (ip), vehicle: saline): 100 % of control; T/C (dose: 2.0 mg/kg/injection, schedule: Q01DX001 (ip), vehicle: saline): 98 % of control; T/C (dose: 2.97 mg/kg/injection, schedule: Q01DX001 (ip), vehicle: saline): 100 % of control; T/C (dose: 3.75 mg/kg/injection, schedule: Q01DX009 (ip), vehicle: saline with Tween-80): 98 % of control; T/C (dose: 3.75 mg/kg/injection, schedule: Q04DX003 (ip), vehicle: acetone): 101 % of control; T/C (dose: 4.5 mg/kg/injection, schedule: Q01DX001 (ip), vehicle: saline): 104 % of control; T/C (dose: 6.75 mg/kg/injection, schedule: Q01DX001 (ip), vehicle: saline): 104 % of control; T/C (dose: 7.5 mg/kg/injection, schedule: Q01DX009 (ip), vehicle: saline with Tween-80): 94 % of control; T/C (dose: 7.5 mg/kg/injection, schedule: Q04DX003 (ip), vehicle: acetone): 108 % of control; T/C (dose: 9.9 mg/kg/injection, schedule: Q01DX001 (ip), vehicle: saline): 96 % of control; T/C (dose: 15.0 mg/kg/injection, schedule: Q01DX001 (ip), vehicle: saline): 98 % of control; T/C (dose: 15.0 mg/kg/injection, schedule: Q04DX003 (ip), vehicle: acetone): 98 % of control
